Common to all, as to type: ADME
Data set [1] addresses T1, Cytochrome P450 2A6 (Homo sapiens, UniProt P11509).
T1 sequence (P11509 whole entry): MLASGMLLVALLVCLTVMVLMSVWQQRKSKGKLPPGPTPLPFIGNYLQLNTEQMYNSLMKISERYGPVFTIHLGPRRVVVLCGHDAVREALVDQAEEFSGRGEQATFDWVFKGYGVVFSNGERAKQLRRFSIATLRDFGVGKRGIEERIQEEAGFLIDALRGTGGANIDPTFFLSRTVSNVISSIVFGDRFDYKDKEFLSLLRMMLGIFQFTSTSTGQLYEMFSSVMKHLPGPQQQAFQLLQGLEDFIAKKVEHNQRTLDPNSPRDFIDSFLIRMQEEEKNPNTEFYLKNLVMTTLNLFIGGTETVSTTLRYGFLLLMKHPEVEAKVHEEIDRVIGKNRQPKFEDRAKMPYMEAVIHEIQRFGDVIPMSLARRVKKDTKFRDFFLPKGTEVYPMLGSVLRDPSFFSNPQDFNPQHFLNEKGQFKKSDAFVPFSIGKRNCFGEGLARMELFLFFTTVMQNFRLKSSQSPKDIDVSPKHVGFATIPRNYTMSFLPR
As to the kind of experiment: Inhibition of CYP2A6 (unknown origin).

Data set [2] has as its target T2, Cytochrome P450 3A4 (Homo sapiens, UniProt P08684). Kind of data set: Non competitive inhibition of CYP3A4 (unknown origin).
Data set [3] has as its target T1, Cytochrome P450 2A6. Kind of data set: Competitive inhibition of CYP2A6 (unknown origin).
For data set [4], the system named is CYP3A4 / CYP2A6. As to the kind of experiment: Selectivity ratio of Ki for non-competitive inhibition of CYP3A4 (unknown origin) to ratio of Ki for competitive inhibition of CYP2A6 (unknown origin). Conditions: human; read-out: Ratio Ki.
Data set [5] has as its system CYP3A4 / CYP2A6. As to the kind of experiment: Selectivity ratio of Ki for mixed type inhibition of CYP3A4 (unknown origin) to ratio of Ki for competitive inhibition of CYP2A6 (unknown origin). Conditions: human; read-out: Ratio Ki.
In data set [6] the target is T2, Cytochrome P450 3A4. Kind of data set: Mixed type inhibition of CYP3A4 (unknown origin).
In data set [7] the target is T2, Cytochrome P450 3A4. Kind of data set: Inhibition of CYP3A4 (unknown origin).
The target in data set [8] is T1, Cytochrome P450 2A6. As to the kind of experiment: Mixed type inhibition of CYP2A6 (unknown origin).
Data set [9] relates to CYP3A4 / CYP2A6. Kind of data set: Selectivity ratio of Ki for non-competitive inhibition of CYP3A4 (unknown origin) to ratio of Ki for mixed type inhibition of CYP2A6 (unknown origin). To be noted: human; read-out: Ratio Ki.
Data set [10] deals with T3, CYP2A6 (Homo sapiens, UniProt P11509).
T3 sequence (P11509 whole entry): T1 sequence (P11509 whole entry)
Kind of data set: Inhibition of CYP2A6 (unknown origin) assessed as residual activity preincubated for 10 mins.

As a reminder, the IC50 is the concentration needed to halve the response being measured. Lower therefore signals higher potency. Broadly, the Ki is a dissociation constant, usually derived from enzyme kinetics or from competition with a known ligand. Lower therefore signals higher affinity.

SMILES strings stand for the structures. Bounds are passed on as bounds.

T2 sequence (P08684 whole entry): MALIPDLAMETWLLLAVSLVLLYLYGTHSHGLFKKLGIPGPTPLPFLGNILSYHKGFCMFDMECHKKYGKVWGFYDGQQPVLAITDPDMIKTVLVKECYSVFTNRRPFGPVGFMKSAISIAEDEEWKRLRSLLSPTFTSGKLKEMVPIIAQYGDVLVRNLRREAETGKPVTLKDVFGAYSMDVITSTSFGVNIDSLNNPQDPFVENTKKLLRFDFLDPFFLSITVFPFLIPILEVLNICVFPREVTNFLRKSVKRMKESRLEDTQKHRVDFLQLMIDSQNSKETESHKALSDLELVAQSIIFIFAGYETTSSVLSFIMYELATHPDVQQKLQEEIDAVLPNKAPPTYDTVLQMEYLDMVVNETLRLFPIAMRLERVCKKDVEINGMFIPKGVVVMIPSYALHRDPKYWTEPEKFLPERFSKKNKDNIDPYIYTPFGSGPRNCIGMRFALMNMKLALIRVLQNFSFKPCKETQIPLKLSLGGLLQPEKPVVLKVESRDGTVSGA

The molecule `CCOc1cccc2oc(=O)ccc12` showed an IC50 in [1] of 170 nM. In addition, the Ki in data set [2] was found to be 424000 nM; in [3], 80 nM. Also, the selectivity ratio in data set [4] was 5300.

For the molecule `C=CCOc1cccc2oc(=O)ccc12`, the selectivity ratio in data set [5] was found to be 937. The IC50 in [1] was determined as 50 nM. For the same molecule, the results for the Ki in data set [3] and in data set [6] were 30 nM and 28100 nM, respectively.

Turning to `CCCOc1cccc2oc(=O)ccc12`, the IC50 in data set [7] was greater than 250000 nM; in data set [1], 1060 nM. Also, affinity in data set [3] was put at a Ki of 540 nM.

For the molecule `COc1ccc2oc(=O)ccc2c1`, the IC50 in [7] was greater than 250000 nM; in [1], 200 nM. This molecule came in with a Ki in data set [3] of 250 nM.

In the case of `COc1cccc2oc(=O)ccc12`, the results for the Ki in [8] and in data set [2] were 50 nM and 448000 nM, respectively. Besides, the selectivity ratio in data set [9] was 8970. The IC50 in [1] was found to be 130 nM.

On to `COc1cccc2ccc(=O)oc12`, for which the values for the IC50 in data set [7] and in data set [1] were greater than 250000 nM and 7470 nM, respectively. The activity in data set [10] turned out to be 62%. The molecule also registered a Ki in data set [3] of 4000 nM.

As to `C#CCOc1cccc2oc(=O)ccc12`, the selectivity ratio in data set [5] amounted to 4660. This molecule came in with an IC50 in data set [1] of 40 nM. Also, in data set [10], the activity amounted to 57%. Also, the Ki in [3] is 10 nM; in [6], 46600 nM.

Consider `COc1c2occc2cc2ccc(=O)oc12` [METHOXSALEN], for which the activity in data set [10] worked out at 52%.

The values above are taken from ChEMBL document CHEMBL5252607, “Synthesis and biological evaluation of coumarin derivatives as selective CYP2A6 inhibitors” (Bioorg Med Chem Lett, 2023).
